Measured values as given in article PMC3781034, “A Small-Animal Pharmacokinetic/Pharmacodynamic PET Study of Central Serotonin 1A Receptor Occupancy by a Potential Therapeutic Agent for Overactive Bladder” (PLoS ONE, 2013).
Like-named read-outs stand apart in the source and are kept apart here.

Tests used:
5-HT1A receptors [1] = assay: Effect compartment model simulation of 5-HT1A RO in female rats; parameters: species or system female SD rats; conditions: for simulated 5-HT1A RO: DRN
From the text: (§1) The effect compartment model is illustrated in Figure 2. The mean plasma concentration profile of E2110 in each of four rats was fitted by two-compartment model with first order absorption and elimination. A sigmoid Emax model (Equation 4) based on the concentration in the effect compartment was fitted to the PD (RO) data. PK and PD models were linked using an effect compartment model described by the following equation: […]
(§2) where Cp and Ce are concentrations of E2110 in the plasma and effect compartments, respectively, and ke0 represents the equilibration rate constant for the effect compartment. PK and PD parameters were estimated by using […] (Version 2.01, MicroMath Research, UT, USA).

P-glycoprotein = assay: Brain-to-plasma ratio in Mdr1a/1b-knockout vs wild-type mice; assay type: in vivo; conditions: rodents, BBB drug transporter; data not shown
5-HT1A receptors [2] = target: T1, 5-HT1A receptors (Rattus norvegicus, UniProt P19327); assay: PET 5-HT1A receptor occupancy, time-course study (effect compartment model); assay type: in vivo, Sprague-Dawley rat; conditions: for EC50: time-course study
T1 construct: occupancy of 5-HT1A receptors in living Sprague-Dawley rat brains; from tissue; host or cells: living Sprague-Dawley rat brain (medial prefrontal cortex, dorsal raphe nucleus), in vivo PET
T1 sequence (P19327 1-422): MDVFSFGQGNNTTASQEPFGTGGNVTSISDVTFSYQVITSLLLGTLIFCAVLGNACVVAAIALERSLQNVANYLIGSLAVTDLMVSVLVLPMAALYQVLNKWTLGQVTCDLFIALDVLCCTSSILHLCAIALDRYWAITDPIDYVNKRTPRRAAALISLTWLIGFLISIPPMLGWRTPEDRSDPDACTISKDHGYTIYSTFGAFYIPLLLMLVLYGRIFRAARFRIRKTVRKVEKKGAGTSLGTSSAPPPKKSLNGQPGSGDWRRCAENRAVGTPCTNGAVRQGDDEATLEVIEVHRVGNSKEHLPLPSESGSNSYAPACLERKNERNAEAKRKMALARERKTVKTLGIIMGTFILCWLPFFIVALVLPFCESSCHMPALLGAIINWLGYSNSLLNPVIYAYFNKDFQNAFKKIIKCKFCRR
Experimental: All PET scans for rats were performed with a small animal-dedicated microPET FOCUS 220 system (Siemens Medical Solutions USA, Knoxville, TN, USA), which yields a 25.8 cm (transaxial) × 7.6 cm (axial) field of view (FOV) and a spatial resolution of 1.3 mm full width at half maximum at the center of FOV [8]. The rats were anesthetized with 1.5-2% isoflurane in air (2 L/min flow rate). Their body temperature was controlled using homeothermic controller and plate with a rectal probe, and their heart rates and arterial oxygen saturations were continuously measured by a pulse oximeter (CANL-425SVA; Med Associates, St. Albans, VT, USA). We also monitored respiration rates of these animals with a custom-made monitoring system (Nagano Electronics, Hitachinaka, Japan). A 20-min transmission scan for attenuation correction was performed using a spiraling ^68Ge-^68Ga point source. Subsequently, list-mode scans were carried out for 90 min. All list-mode data were sorted and Fourier rebinned into two-dimensional sinograms (frames: 4 × 1, 8 × 2, and 14 × 5 min). Images were thereafter reconstructed using two-dimensional filtered back-projection with a 0.5-mm Hanning filter. [^11C]-WAY-100635 was injected via the tail vein as a single bolus at the start of emission scanning. The injected dose of the radiotracer was 85.3 ± 28.6 MBq/rat (mean ± SD).
Anatomical regions of interest (ROIs) were placed on the medial prefrontal cortex (MPFC) and dorsal raphe nucleus (DRN) using PMOD® image software (PMOD Group, Zurich, Switzerland) with reference to the MRI template. Radioligand binding was examined by calculating the binding potential (BP ND; ratio at equilibrium of specifically-bound radioligand to that of nondisplaceable radioligand in tissue) based on a simplified reference tissue model (SRTM) using the cerebellar time-radioactivity curve as reference.
Occupancy of 5-HT1A receptors by E2110 was calculated using the following equation:
RO(%)=BPND,baseline−BPND,drug/BPND,baseline×100 (2)
where BP ND, baseline and BP ND, drug are estimated BP ND at baseline and following drug administration, respectively.
To examine the dose-RO relationship at a single time point, four male SD rats, which had undergone a baseline PET imaging in advance, were scanned with PET at 4 hours after being pretreated with 4 oral doses (0.3, 1, 3, 10 mg/kg) of E2110. In this assay, approximately 250 µL of blood samples were collected from the tail vein upon initiation of the scan for quantification of plasma concentration of E2110. We further examined RO at different time points after the drug administration by conducting PET scans of four male SD rats at 2, 4, 6 or 8 hours after pretreatment with a single oral dose of 1 mg/kg E2110. In addition to this series of PET assays for male rats, pilot PET scans for female rats (n = 3) were carried out at baseline and 4 hours after oral administration of 0.1 mg/kg E2110 to examine whether relationships between plasma concentration of E2110 and RO by this drug in the brain are consistent between two genders. In all experiments, scans for the same individual receiving E2110 were conducted more than 1 week apart.
as §1, §2

micturition interval = assay: 5-HT1A receptor agonist (8-OH-DPAT)-induced model of OAB, cystometry; assay type: in vivo, female SD rats
Experimental: Catheter implantations and cystometric investigations were performed based on the reported method [14]. Briefly, on the day before the cystometric experiment, female SD rats were initially anesthetized with pentobarbital (50 mg/kg ip). Catheters were inserted into the femoral vein, the dome of the stomach and the dome of the bladder. In the cystometric study, the bladder catheter was connected to an infusion pump and a pressure transducer (DX-312; Nihon Kohden Co., Tokyo, Japan) by three-way stopcock. Saline was infused into the bladder and femoral vein. After bladder pressure was stabilized, 8-OH-DPAT (0.06 mg/kg/h) was infused into the femoral vein instead of saline. Bladder pressure was monitored with a pressure transducer and a pressure amplifier (AP-601G; Nihon Kohden), and recorded on a pen recorder (WT-645G; Nihon Kohden). The following three micturition intervals (i.e., intervals between consecutive peaks of bladder pressure induced at the time of bladder content evacuation) were obtained: (1) basal micturition interval (intervals before 8-OH-DPAT administration), (2) pre-administration micturition interval, (intervals immediately before administration of E2110 or vehicle), and (3) post-administration micturition interval (intervals observed between 1 and 2 hr after administration of E2110 or vehicle). […] E2110 (0.03, 0.1 or 0.3 mg/kg) or vehicle was administered to four groups of eight conscious rats orally.
Data are expressed as mean ± standard error of mean (S.E.M). In the pharmacological study, the statistical significance of differences between the vehicle- and E2110-treated groups was tested using one-way analysis of variance (ANOVA) followed by Dunnett’s multiple comparison test. A probability (p) value of <0.05 (two-sided) was considered statistically significant. All statistical analyses were performed using the SAS software package version 8.1 or 8.2 (SAS Institute Japan Ltd., Tokyo, Japan).

rat 5-HT1A receptor = target: T2, rat 5-HT1A receptor (Rattus norvegicus, UniProt P19327); assay: Binding assay in rat hippocampal membrane fraction ([3H]MPPF); conditions: rat hippocampal membranes, 0.3 nM [3H]MPPF, 25°C 60 min; read-out: Ki, 5-HT1A receptor affinity
T2 construct: from tissue; host or cells: rat hippocampus, membrane (microsomal) fraction
T2 sequence (P19327 1-422): T1 sequence (P19327 1-422)
Experimental: Rat hippocampal samples were weighed, homogenized in 10-fold volume of 50 mM Tris-HCl (pH 7.4) on an ice bath, and centrifuged (50,000×g, 4°C, 20 min). The precipitate was further homogenized in a 10-fold volume of 50 mM Tris-HCl (pH 7.4) on an ice bath and centrifuged (50,000×g, 4°C, 20 min). The obtained precipitate was homogenized in 50 mM Tris-HCl (pH 7.4) to render a concentration of 100 mg tissue eq./mL. The obtained microsomal fraction was stored as a receptor stock solution at -80°C until use. […] MPPF in a total 1-ml reaction volume at 25°C for 60 min. The reaction was terminated, and bound radioactivity was separated from free radioligands by filtering and washing three times with 3 ml of 50 mM Tris-HCl (pH 7.4). The radioactivity content of the filters in 5 ml of liquid scintillator (Atomlight; PerkinElmer) was counted by TR2500 scintillation counter (PerkinElmer Life & Analytical Sciences). The specific binding was determined as the difference between total and nonspecific binding, measured in the absence and presence of 100 µM 5-HT. Data were analyzed by Scatchard plot to estimate equilibrium constant (Kd) values. For the competition experiments, binding assays were carried out using 0.3 nM [^3H] […] MPPF according to the following equation:
Ki=IC50/1+[radioligand]/Kd (1)
where [radioligand] means the concentration of the radioligand used.

CYP3A4 = target: T3, CYP3A4 (Homo sapiens, UniProt P08684); assay: Metabolism in human liver microsomes; assay type: in vitro ADME; conditions: unpublished results
T3 construct: from tissue; host or cells: human liver microsomes
T3 sequence (P08684 whole entry): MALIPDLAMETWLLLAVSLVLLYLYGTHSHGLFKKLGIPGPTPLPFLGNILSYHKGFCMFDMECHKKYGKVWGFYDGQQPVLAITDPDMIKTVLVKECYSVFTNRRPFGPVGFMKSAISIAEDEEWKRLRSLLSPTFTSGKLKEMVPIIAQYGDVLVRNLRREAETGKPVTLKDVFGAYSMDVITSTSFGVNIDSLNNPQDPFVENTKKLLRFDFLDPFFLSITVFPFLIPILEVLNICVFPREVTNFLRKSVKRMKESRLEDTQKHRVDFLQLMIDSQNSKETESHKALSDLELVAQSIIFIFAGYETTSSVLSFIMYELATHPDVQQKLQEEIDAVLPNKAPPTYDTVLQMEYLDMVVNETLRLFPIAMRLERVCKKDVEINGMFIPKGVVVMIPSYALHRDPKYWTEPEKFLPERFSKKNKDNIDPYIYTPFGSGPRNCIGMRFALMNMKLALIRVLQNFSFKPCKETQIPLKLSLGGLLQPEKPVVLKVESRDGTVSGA

CNC(=O)c1ccc2ccn(C3CCN(CCc4c(OC)ccc5c4OC(C)(C)CC5=O)CC3)c2c1.O=C(O)/C=C/C(=O)O [E2110, 1-{1-[2-(7-Methoxy-2,2-dimethyl-4-oxochroman-8-yl)ethyl]piperidine-4-yl}-N-methyl-1H-indole-6-carboxamide fumarate]
simulated RO at minimum effective doses during micturition monitoring period (5-HT1A receptors [1]; 0.1 mg/kg (8-OH-DPAT model, 1-2 hours postdose) and 0.3 mg/kg (SCL model, 0.5-1 hour postdose)): around 60% | simulated 5-HT1A RO (5-HT1A receptors [1]; 0.1 mg/kg oral, 1-2 hours after dosing, 8-OH-DPAT treatment): 60-70% | simulated 5-HT1A RO (5-HT1A receptors [1]; 0.3 mg/kg oral, 0.5-1 hour after dosing, SCL model): 60-80% | 5-HT1A RO required for significant effects on micturition (5-HT1A receptors [1]; inferred from simulated RO and pharmacological tests): ≥ 60% | P-glycoprotein substrate status (P-glycoprotein): substrate for the BBB drug transporter P-glycoprotein | EC50 (5-HT1A receptors [2]; DRN, 1 mg/kg oral, male SD rats, effect compartment model, read-out: EC50 for occupancy of 5-HT1A receptors (converted)): 7.38 nM | EC50 (5-HT1A receptors [2]; DRN, effect compartment model, read-out: EC50 for occupancy of 5-HT1A receptors (converted)): 5.94 nM | EC50 (5-HT1A receptors [2]; DRN, read-out: EC50 for 5-HT1A RO, value in parentheses (free concentration-based)): 0.44 nM | EC50 (5-HT1A receptors [2]; MPFC, 1 mg/kg oral, male SD rats, effect compartment model, read-out: EC50 for occupancy of 5-HT1A receptors (converted)): 5.85 nM | EC50 (5-HT1A receptors [2]; MPFC, effect compartment model, read-out: EC50 for occupancy of 5-HT1A receptors (converted)): 4.74 nM | EC50 (5-HT1A receptors [2]; MPFC, read-out: EC50 for 5-HT1A RO, value in parentheses (free concentration-based)): 0.35 nM | half-life (5-HT1A receptors [2]; Sprague-Dawley, rat, effect compartment model, 1 mg/kg oral, male SD rats, read-out: CNS equilibration t1/2 (from ke0) (converted)): 84 min | 5-HT1A RO measured by PET versus simulated RO (5-HT1A receptors [2]; female rats, 4 hours after oral 0.1 mg/kg, pilot study n = 3): in good agreement with calculated data | minimum dose exerting overt therapeutic effects on the micturition reflex (micturition interval; 8-OH-DPAT model, oral): 0.1 mg/kg | effect on micturition interval (micturition interval; oral 0.1-0.3 mg/kg, 8-OH-DPAT-infused female SD rats, 1-2 hr after administration): significantly (p < 0.05) prolonged the micturition intervals | Ki (rat 5-HT1A receptor): 0.045 nM | metabolizing enzyme (CYP3A4): primarily metabolized by CYP3A4
